ChEMBL document CHEMBL1201862, “PubChem BioAssay data set” (2004)
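48-hour exposure; five concentrations; linearly interpolated endpoints. GI50: concentration for 50% inhibition of growth.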 The source made the active and inactive calls. Rule as the data show it: active = GI50 up to about 1.1 µM and inactive = higher.

Columns and labels:
Assay in all cases: NCI-60 cell line screen, 48 h
SNB-19 = tested on: SNB-19
SK-MEL-5 = tested on: SK-MEL-5
UO-31 = tested on: UO-31
M14 = tested on: M14
OVCAR-3 = tested on: OVCAR-3
CAKI-1 = tested on: CAKI-1
KM12 = tested on: KM12
MDA-N = tested on: MDA-N
MDA-MB-435 = tested on: MDA-MB-435
NCI-H23 = tested on: NCI-H23
MDA-MB-231 = tested on: MDA-MB-231
EKVX = tested on: EKVX
SF-268 = tested on: SF-268
NCI-H522 = tested on: NCI-H522
A549 = tested on: A549
HT-29 = tested on: HT-29
LOX IMVI = tested on: LOX IMVI
HCC 2998 = tested on: HCC 2998
BT-549 = tested on: BT-549

## COCC1OC([P+](c2ccccc2)(c2ccccc2)c2ccccc2)CC(OC)C1OC (stereo not given)
SNB-19
  GI50: 34.7 µM (inactive)
SK-MEL-5
  GI50: 18.2 µM (inactive)
UO-31
  GI50: > 100 µM (inactive)
M14
  GI50: 40.8 µM (inactive)
OVCAR-3
  GI50: 22.7 µM (inactive)
CAKI-1
  GI50: > 100 µM (inactive)
KM12
  GI50: 34.5 µM (inactive)
MDA-N
  GI50: 37.2 µM (inactive)
MDA-MB-435
  GI50: 29.6 µM (inactive)
NCI-H23
  GI50: 48.6 µM (inactive)
MDA-MB-231
  GI50: 44.3 µM (inactive)
EKVX
  GI50: 42.6 µM (inactive)

## O=C(Cc1ccc(F)cc1)NC1=C(Cl)C(=O)c2ccccc2C1=O
SNB-19
  GI50: 5.58 µM (inactive)
SK-MEL-5
  GI50: 2.92 µM (inactive)
UO-31
  GI50: 2.51 µM (inactive)
M14
  GI50: 3.16 µM (inactive)
OVCAR-3
  GI50: 2.75 µM (inactive)
SF-268
  GI50: 4.05 µM (inactive)
CAKI-1
  GI50: 4.95 µM (inactive)
NCI-H522
  GI50: 0.297 µM (active)
A549
  GI50: 3.62 µM (inactive)
KM12
  GI50: 3.52 µM (inactive)
HT-29
  GI50: 17.3 µM (inactive)
LOX IMVI
  GI50: 2.95 µM (inactive)
NCI-H23
  GI50: 1.67 µM (inactive)
HCC 2998
  GI50: 4.22 µM (inactive)
EKVX
  GI50: 3.65 µM (inactive)

## COc1ccc2nc(NC(=O)C(=O)CC(=O)c3ccc([N+](=O)[O-])cc3)sc2c1
SNB-19
  GI50: > 100 µM (inactive)
SK-MEL-5
  GI50: > 100 µM (inactive)
UO-31
  GI50: 50.7 µM (inactive)
M14
  GI50: > 100 µM (inactive)
OVCAR-3
  GI50: > 100 µM (inactive)
SF-268
  GI50: > 100 µM (inactive)
CAKI-1
  GI50: > 100 µM (inactive)
NCI-H522
  GI50: > 100 µM (inactive)
A549
  GI50: > 100 µM (inactive)
KM12
  GI50: > 100 µM (inactive)
HT-29
  GI50: > 100 µM (inactive)
NCI-H23
  GI50: > 100 µM (inactive)
HCC 2998
  GI50: > 100 µM (inactive)
EKVX
  GI50: > 100 µM (inactive)

## C[N+](C)(C)CCc1ccccc1
SNB-19
  GI50: > 100 µM (inactive)
SK-MEL-5
  GI50: > 100 µM (inactive)
UO-31
  GI50: > 100 µM (inactive)
M14
  GI50: > 100 µM (inactive)
OVCAR-3
  GI50: > 100 µM (inactive)
SF-268
  GI50: > 100 µM (inactive)
CAKI-1
  GI50: > 100 µM (inactive)
NCI-H522
  GI50: > 100 µM (inactive)
A549
  GI50: > 100 µM (inactive)
KM12
  GI50: > 100 µM (inactive)
HT-29
  GI50: > 100 µM (inactive)
LOX IMVI
  GI50: > 100 µM (inactive)
NCI-H23
  GI50: > 100 µM (inactive)
HCC 2998
  GI50: > 100 µM (inactive)
EKVX
  GI50: > 100 µM (inactive)

## S=c1nc(N/N=C/c2cccs2)c2cn[nH]c2[nH]1
SNB-19
  GI50: 58.2 µM (inactive)
SK-MEL-5
  GI50: 31.1 µM (inactive)
UO-31
  GI50: > 100 µM (inactive)
M14
  GI50: 33.4 µM (inactive)
OVCAR-3
  GI50: 9.25 µM (inactive)
SF-268
  GI50: 38 µM (inactive)
CAKI-1
  GI50: 14.8 µM (inactive)
NCI-H522
  GI50: 27.3 µM (inactive)
A549
  GI50: 0.238 µM (active)
KM12
  GI50: 6.43 µM (inactive)
HT-29
  GI50: 29.5 µM (inactive)
MDA-MB-435
  GI50: 16.3 µM (inactive)
BT-549
  GI50: > 100 µM (inactive)
LOX IMVI
  GI50: 25.5 µM (inactive)
NCI-H23
  GI50: 21.2 µM (inactive)
HCC 2998
  GI50: 10.1 µM (inactive)
MDA-MB-231
  GI50: 28.1 µM (inactive)
EKVX
  GI50: 31.9 µM (inactive)

## N#C/C(C(=S)Nc1ccccc1)=C(/N)N1CCCC1
SNB-19
  GI50: > 100 µM (inactive)
SK-MEL-5
  GI50: > 100 µM (inactive)
UO-31
  GI50: 46.7 µM (inactive)
M14
  GI50: > 100 µM (inactive)
OVCAR-3
  GI50: > 100 µM (inactive)
SF-268
  GI50: > 100 µM (inactive)
CAKI-1
  GI50: 27.9 µM (inactive)
NCI-H522
  GI50: > 100 µM (inactive)
A549
  GI50: > 100 µM (inactive)
KM12
  GI50: > 100 µM (inactive)
MDA-N
  GI50: > 100 µM (inactive)
HT-29
  GI50: > 100 µM (inactive)
MDA-MB-435
  GI50: > 100 µM (inactive)
LOX IMVI
  GI50: > 100 µM (inactive)
NCI-H23
  GI50: > 100 µM (inactive)
HCC 2998
  GI50: > 100 µM (inactive)
MDA-MB-231
  GI50: > 100 µM (inactive)
EKVX
  GI50: > 100 µM (inactive)

## C(=C\c1c2oc(-c3ccccc3)cc(-c3ccccc3)c-2c2ccccc12)/C=C1\c2ccccc2-c2c(-c3ccccc3)cc(-c3ccccc3)[o+]c21.[O-][Cl+3]([O-])([O-])[O-]
SNB-19
  GI50: > 100 µM (inactive)
SK-MEL-5
  GI50: > 100 µM (inactive)
UO-31
  GI50: > 100 µM (inactive)
M14
  GI50: 37 µM (inactive)
OVCAR-3
  GI50: > 100 µM (inactive)
SF-268
  GI50: > 100 µM (inactive)
NCI-H522
  GI50: > 100 µM (inactive)
A549
  GI50: > 100 µM (inactive)
HT-29
  GI50: > 100 µM (inactive)
LOX IMVI
  GI50: > 100 µM (inactive)
NCI-H23
  GI50: > 100 µM (inactive)
HCC 2998
  GI50: > 100 µM (inactive)
EKVX
  GI50: > 100 µM (inactive)

## Cc1cccc(/N=C/C=C(\Cl)c2ccc3ccccc3c2)c1
SNB-19
  GI50: 13.9 µM (inactive)
SK-MEL-5
  GI50: 17.7 µM (inactive)
UO-31
  GI50: 16.2 µM (inactive)
M14
  GI50: 17.1 µM (inactive)
OVCAR-3
  GI50: 15 µM (inactive)
SF-268
  GI50: 22.9 µM (inactive)
CAKI-1
  GI50: 17.2 µM (inactive)
NCI-H522
  GI50: 32.6 µM (inactive)
A549
  GI50: 44.6 µM (inactive)
KM12
  GI50: 17.7 µM (inactive)
HT-29
  GI50: 21.2 µM (inactive)
MDA-MB-435
  GI50: 18.1 µM (inactive)
BT-549
  GI50: 19.1 µM (inactive)
LOX IMVI
  GI50: 2.79 µM (inactive)
NCI-H23
  GI50: 13.9 µM (inactive)
MDA-MB-231
  GI50: 15.9 µM (inactive)
EKVX
  GI50: 39.5 µM (inactive)

## CCOC(=O)/C=C/CC(C)(C)CCOC(C)=O
SNB-19
  GI50: > 10 µM (inactive)
SK-MEL-5
  GI50: > 10 µM (inactive)
UO-31
  GI50: > 10 µM (inactive)
M14
  GI50: > 10 µM (inactive)
OVCAR-3
  GI50: > 10 µM (inactive)
SF-268
  GI50: > 10 µM (inactive)
CAKI-1
  GI50: > 10 µM (inactive)
NCI-H522
  GI50: > 10 µM (inactive)
A549
  GI50: > 10 µM (inactive)
KM12
  GI50: > 10 µM (inactive)
MDA-N
  GI50: > 10 µM (inactive)
HT-29
  GI50: > 10 µM (inactive)
MDA-MB-435
  GI50: > 10 µM (inactive)
LOX IMVI
  GI50: > 10 µM (inactive)
NCI-H23
  GI50: > 10 µM (inactive)
HCC 2998
  GI50: > 10 µM (inactive)
MDA-MB-231
  GI50: > 10 µM (inactive)

## COc1ccc(C=C2C(=O)NC(=S)NC2=O)c2ccccc12
SK-MEL-5
  GI50: 29.1 µM (inactive)
UO-31
  GI50: > 100 µM (inactive)
M14
  GI50: 45 µM (inactive)
OVCAR-3
  GI50: 24 µM (inactive)
SF-268
  GI50: 34.5 µM (inactive)
CAKI-1
  GI50: 50.2 µM (inactive)
NCI-H522
  GI50: 47.2 µM (inactive)
KM12
  GI50: 44.3 µM (inactive)
MDA-N
  GI50: 18.1 µM (inactive)
HT-29
  GI50: 28.2 µM (inactive)
MDA-MB-435
  GI50: 27 µM (inactive)
LOX IMVI
  GI50: 34.4 µM (inactive)
NCI-H23
  GI50: 32.8 µM (inactive)
HCC 2998
  GI50: 32.6 µM (inactive)
MDA-MB-231
  GI50: 39.9 µM (inactive)
EKVX
  GI50: 82 µM (inactive)

## O=C(Nc1ccc(Cl)cc1)c1cc2c(cc1Cl)Sc1nccn1S2(=O)=O
SNB-19
  GI50: 44.4 µM (inactive)
SK-MEL-5
  GI50: 44.7 µM (inactive)
M14
  GI50: > 100 µM (inactive)
OVCAR-3
  GI50: 46.5 µM (inactive)
SF-268
  GI50: 27.5 µM (inactive)
CAKI-1
  GI50: 40.7 µM (inactive)
NCI-H522
  GI50: 57.1 µM (inactive)
A549
  GI50: > 100 µM (inactive)
KM12
  GI50: > 100 µM (inactive)
MDA-N
  GI50: 28.8 µM (inactive)
HT-29
  GI50: > 100 µM (inactive)
MDA-MB-435
  GI50: 4.42 µM (inactive)
LOX IMVI
  GI50: > 100 µM (inactive)
HCC 2998
  GI50: 76.7 µM (inactive)
MDA-MB-231
  GI50: 43.7 µM (inactive)
EKVX
  GI50: 69 µM (inactive)

## COc1ccc(O)c(/C=N\Nc2ccccc2)c1
SNB-19
  GI50: 30.8 µM (inactive)
SK-MEL-5
  GI50: 22.5 µM (inactive)
UO-31
  GI50: 4.14 µM (inactive)
M14
  GI50: 19 µM (inactive)
SF-268
  GI50: 13.1 µM (inactive)
NCI-H522
  GI50: 2.32 µM (inactive)
A549
  GI50: 6.22 µM (inactive)
HT-29
  GI50: 15.6 µM (inactive)
MDA-MB-435
  GI50: 3.67 µM (inactive)
BT-549
  GI50: 6.32 µM (inactive)
LOX IMVI
  GI50: 2.44 µM (inactive)
NCI-H23
  GI50: 10.3 µM (inactive)
HCC 2998
  GI50: < 0.01 µM (active)
MDA-MB-231
  GI50: 7.03 µM (inactive)
EKVX
  GI50: 39.7 µM (inactive)

## Cc1c2cc[n+](C)cc2c(C)c2c1[nH]c1ccc(O)c(OCC(F)(F)F)c12
SNB-19
  GI50: 0.218 µM (active)
SK-MEL-5
  GI50: 1.51 µM (inactive)
UO-31
  GI50: 7.06 µM (inactive)
M14
  GI50: 6.22 µM (inactive)
OVCAR-3
  GI50: 0.895 µM (active)
SF-268
  GI50: 0.164 µM (active)
CAKI-1
  GI50: 12.8 µM (inactive)
NCI-H522
  GI50: 1.01 µM (active)
A549
  GI50: 1.87 µM (inactive)
HT-29
  GI50: 9.82 µM (inactive)
LOX IMVI
  GI50: 13 µM (inactive)
NCI-H23
  GI50: 0.984 µM (active)
HCC 2998
  GI50: 4.55 µM (inactive)
EKVX
  GI50: 2.68 µM (inactive)
